Assay results reported in PubChem BioAssay AID330 (DTP/NCI, 2004).
Several values for one entry are separate records, joined by “and”; a condition that tells them apart may be missing. Identical values can stand only once. Toxic doses and inconclusive results are not listed.

System: P388 leukemia ip, CD2F1 mice, survival T/C
Experiment: NCI In Vivo Anticancer Drug Screen. Data for tumor model P388 Leukemia (intraperitoneal) in CD2F1 (CDF1) mice
Details: endpoint: median survival time, higher = longer survival
Method in brief: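 Mice carrying the transplanted tumor received test compound or vehicle. Survival was recorded in each group, and the value is the treated-group measurement divided by that of the vehicle-treated control group.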

[1] = dose: 50.0 mg/kg/injection, schedule: Q01DX009 (ip), vehicle: saline
[2] = dose: 100.0 mg/kg/injection, schedule: Q01DX009 (ip), vehicle: saline
[3] = dose: 100.0 mg/kg/injection, schedule: Q04DX003 (ip), vehicle: saline with Tween-80
[4] = dose: 200.0 mg/kg/injection, schedule: Q01DX009 (ip), vehicle: saline
[5] = dose: 200.0 mg/kg/injection, schedule: Q04DX003 (ip), vehicle: saline with Tween-80
[6] = dose: 400.0 mg/kg/injection, schedule: Q01DX009 (ip), vehicle: saline
[7] = dose: 400.0 mg/kg/injection, schedule: Q04DX003 (ip), vehicle: saline with Tween-80
[8] = dose: 12.5 mg/kg/injection, schedule: Q01DX009 (ip), vehicle: saline
[9] = dose: 25.0 mg/kg/injection, schedule: Q01DX009 (ip), vehicle: saline
[10] = dose: 50.0 mg/kg/injection, schedule: Q01DX005 (ip), vehicle: saline with Tween-80
[11] = dose: 100.0 mg/kg/injection, schedule: Q01DX005 (ip), vehicle: saline with Tween-80
[12] = dose: 200.0 mg/kg/injection, schedule: Q01DX005 (ip), vehicle: saline with Tween-80
[13] = dose: 25.0 mg/kg/injection, schedule: Q01DX009 (ip), vehicle: Klucel (hydroxypropylcellulose) (HPC)
[14] = dose: 50.0 mg/kg/injection, schedule: Q01DX009 (ip), vehicle: Klucel (hydroxypropylcellulose) (HPC)
[15] = dose: 100.0 mg/kg/injection, schedule: Q01DX009 (ip), vehicle: Klucel (hydroxypropylcellulose) (HPC)
[16] = dose: 200.0 mg/kg/injection, schedule: Q01DX009 (ip), vehicle: Klucel (hydroxypropylcellulose) (HPC)
[17] = dose: 50.0 mg/kg/injection, schedule: Q01DX009 (ip), vehicle: saline with Tween-80
[18] = dose: 100.0 mg/kg/injection, schedule: Q01DX009 (ip), vehicle: saline with Tween-80
[19] = dose: 400.0 mg/kg/injection, schedule: Q01DX009 (ip), vehicle: Klucel (hydroxypropylcellulose) (HPC)
[20] = dose: 200.0 mg/kg/injection, schedule: Q01DX009 (ip), vehicle: saline with Tween-80
[21] = dose: 25.0 mg/kg/injection, schedule: Q01DX009 (ip), vehicle: saline with Tween-80
[22] = dose: 60.0 mg/kg/injection, schedule: Q01DX005 (ip), vehicle: saline with Tween-80
[23] = dose: 120.0 mg/kg/injection, schedule: Q01DX005 (ip), vehicle: saline with Tween-80
[24] = dose: 240.0 mg/kg/injection, schedule: Q01DX005 (ip), vehicle: saline with Tween-80

O=C1NC(CO)C(=O)NC1CO (stereo not drawn)
T/C (dose: 12.5 mg/kg/injection, schedule: Q01DX009 (ip), vehicle: distilled water + Tween-80): 90 % of control | T/C (dose: 25.0 mg/kg/injection, schedule: Q01DX009 (ip), vehicle: distilled water + Tween-80): 92 % of control | T/C (dose: 50.0 mg/kg/injection, schedule: Q01DX009 (ip), vehicle: distilled water + Tween-80): 90 % of control | T/C [1]: 98 % of control | T/C (dose: 50.0 mg/kg/injection, schedule: Q04DX003 (ip), vehicle: saline with Tween-80): 100 % of control | T/C (dose: 100.0 mg/kg/injection, schedule: Q01DX009 (ip), vehicle: distilled water + Tween-80): 93 % of control | T/C [2]: 95 % of control | T/C [3]: 100 % of control | T/C (dose: 200.0 mg/kg/injection, schedule: Q01DX009 (ip), vehicle: distilled water + Tween-80): 90 % of control | T/C [4]: 98 % of control | T/C [5]: 99 % of control | T/C (dose: 400.0 mg/kg/injection, schedule: Q01DX009 (ip), vehicle: distilled water + Tween-80): 90 % of control | T/C [6]: 104 % of control | T/C [7]: 99 % of control

C=CCCCCCCCCCCCCCC1=NCC[N+]1(CCO)CC(O)COc1cc(Cl)c(Cl)c(Cl)c1 (stereo not drawn)
T/C [8]: 102 % of control | T/C [9]: 106 % of control | T/C [1]: 105 % of control and 108 % of control | T/C [2]: 90 % of control

C=CCC12CC(COc3ccccc3C(N)=O)OC1=Nc1ccccc1NC2=O (stereo not drawn)
T/C [10]: 113 % of control | T/C [11]: 100 % of control | T/C [12]: 99 % of control

O=C1CSC(=S)N1c1ccc(F)c(F)c1
T/C [1]: 107 % of control | T/C [2]: 106 % of control | T/C [4]: 108 % of control

CCOC(=O)c1ncc(OCC)o1
T/C [1]: 91 % of control | T/C [2]: 89 % of control | T/C [4]: 95 % of control

COc1ccc2nc(N(C)C)cc(N(C)C)c2c1
T/C (dose: 12.5 mg/kg/injection, schedule: Q01DX009 (ip), vehicle: Klucel (hydroxypropylcellulose) (HPC)): 94 % of control | T/C [13]: 94 % of control | T/C [14]: 87 % of control

O=C(O)c1[nH]c(=O)[nH]c(=O)c1F
T/C (dose: 2.5 mg/kg/injection, schedule: Q01DX010 (ip), vehicle: saline): 110 % of control | T/C (dose: 5.0 mg/kg/injection, schedule: Q01DX010 (ip), vehicle: saline): 160 % of control | T/C (dose: 16.0 mg/kg/injection, schedule: Q01DX009 (ip), vehicle: saline): 100 % of control

Cc1ccc2c(Nc3ccc(NS(C)(=O)=O)cc3C)c3ccccc3nc2c1
T/C [8]: 150 % of control and 161 % of control | T/C (dose: 12.5 mg/kg/injection, schedule: Q04DX003 (ip), vehicle: saline): 98 % of control | T/C [9]: 156 % of control and 157 % of control | T/C (dose: 25.0 mg/kg/injection, schedule: Q04DX003 (ip), vehicle: saline): 96 % of control | T/C (dose: 50.0 mg/kg/injection, schedule: Q04DX003 (ip), vehicle: saline): 97 % of control | T/C (dose: 100.0 mg/kg/injection, schedule: Q04DX003 (ip), vehicle: saline): 95 % of control

C[CH2][Pb]([CH2]C)([CH2]C)[N]1C(=O)c2ccccc2C1=O
T/C (dose: 1.56 mg/kg/injection, schedule: Q01DX009 (ip), vehicle: Klucel (hydroxypropylcellulose) (HPC)): 110 % of control | T/C (dose: 3.12 mg/kg/injection, schedule: Q01DX009 (ip), vehicle: Klucel (hydroxypropylcellulose) (HPC)): 118 % of control

NC(=O)NC1(C(=O)O)CCCC1
T/C [13]: 102 % of control | T/C [14]: 103 % of control | T/C [15]: 103 % of control | T/C [16]: 105 % of control

N=C(N)N
T/C [17]: 100 % of control | T/C [18]: 100 % of control

O=C1CSC(c2ccsc2)N1c1nncs1 (stereo not drawn)
T/C (dose: 60.0 mg/kg/injection, schedule: Q01DX005 (ip), vehicle: Klucel (hydroxypropylcellulose) (HPC)): 101 % of control | T/C (dose: 120.0 mg/kg/injection, schedule: Q01DX005 (ip), vehicle: Klucel (hydroxypropylcellulose) (HPC)): 100 % of control | T/C (dose: 240.0 mg/kg/injection, schedule: Q01DX005 (ip), vehicle: Klucel (hydroxypropylcellulose) (HPC)): 108 % of control

C(C#CCN1CCOCC1)#CCN1CCOCC1
T/C [14]: 109 % of control and 89 % of control | T/C [15]: 101 % of control and 89 % of control | T/C [16]: 101 % of control and 93 % of control | T/C [19]: 98 % of control

CC(=O)C(=O)C1=C2CCCN2CCc2cc3c(cc21)OCO3
T/C (dose: 6.25 mg/kg/injection, schedule: Q01DX009 (ip), vehicle: water): 92 % of control | T/C (dose: 12.5 mg/kg/injection, schedule: Q01DX009 (ip), vehicle: water): 98 % of control | T/C (dose: 25.0 mg/kg/injection, schedule: Q01DX009 (ip), vehicle: water): 93 % of control | T/C (dose: 50.0 mg/kg/injection, schedule: Q01DX009 (ip), vehicle: water): 101 % of control | T/C (dose: 100.0 mg/kg/injection, schedule: Q01DX009 (ip), vehicle: water): 99 % of control

CC1=NN(C(=O)c2ccncc2)C(=O)C1N=Nc1ccc(S(=O)(=O)N=C(N)N)cc1 (stereo not drawn)
T/C [17]: 97 % of control | T/C [18]: 94 % of control | T/C [20]: 90 % of control

N#CCCN(CCCN1CCOCC1)CN1C(=O)c2ccccc2C1=O
T/C [14]: 98 % of control | T/C [15]: 91 % of control | T/C [19]: 99 % of control

NNc1ccc2nnc(Cl)n2n1
T/C (dose: 100.0 mg/kg/injection, schedule: Q04DX002 (ip), vehicle: saline): 101 % of control | T/C (dose: 200.0 mg/kg/injection, schedule: Q04DX002 (ip), vehicle: saline): 102 % of control | T/C (dose: 400.0 mg/kg/injection, schedule: Q04DX002 (ip), vehicle: saline): 108 % of control

COc1ccc(OC)c(NC=O)c1
T/C (dose: 12.5 mg/kg/injection, schedule: Q01DX009 (ip), vehicle: saline with Tween-80): 98 % of control and 86 % of control | T/C [21]: 98 % of control and 93 % of control and 97 % of control | T/C [17]: 104 % of control and 97 % of control | T/C [18]: 99 % of control and 100 % of control and 97 % of control

C=C1C(=O)OCC1C(=O)OCC (stereo not drawn)
T/C [3]: 103 % of control | T/C [5]: 107 % of control | T/C [7]: 98 % of control

COc1cc(Cl)nc(OC)n1
T/C [21]: 108 % of control | T/C [17]: 89 % of control | T/C [18]: 103 % of control | T/C [20]: 103 % of control

CCOP(=O)(CCCCN1C(=O)c2ccccc2C1=O)OCC
T/C [2]: 100 % of control | T/C [4]: 100 % of control | T/C [6]: 100 % of control

CC(=O)OCC1OC(CC(=O)c2ccccc2)C=CC1OC(C)=O (stereo not drawn)
T/C (dose: 25.0 mg/kg/injection, schedule: Q01DX005 (ip), vehicle: saline with Tween-80): 99 % of control | T/C [10]: 102 % of control and 101 % of control | T/C [11]: 100 % of control and 106 % of control | T/C [12]: 97 % of control and 106 % of control

COC(=O)C1(Br)CCC1(Br)C(=O)OC (stereo not drawn)
T/C [14]: 100 % of control | T/C [15]: 109 % of control | T/C [16]: 103 % of control | T/C [19]: 94 % of control

CS(=O)(=O)N/N=C(\N)Oc1ccc(Cl)cc1Cl
T/C [22]: 97 % of control | T/C [23]: 93 % of control | T/C [24]: 88 % of control

O=c1c2cc3c(=O)n(CC#CCN4CCCCC4)c(=O)c3cc2c(=O)n1CC#CCN1CCCCC1
T/C [10]: 100 % of control | T/C [11]: 100 % of control | T/C [12]: 98 % of control

O=C(Nc1cc(-c2ccccc2)[nH]n1)c1ccccc1F
T/C (dose: 30.0 mg/kg/injection, schedule: Q01DX005 (ip), vehicle: saline with Tween-80): 97 % of control | T/C [22]: 97 % of control | T/C [23]: 97 % of control | T/C [24]: 90 % of control

[Br][Sn]([Br])([CH2][Sn]([Br])([Br])[c]1ccccc1)[c]1ccccc1
T/C (dose: 50.0 mg/kg/injection, schedule: Q01DX005 (ip), vehicle: Klucel (hydroxypropylcellulose) (HPC)): 97 % of control | T/C (dose: 100.0 mg/kg/injection, schedule: Q01DX005 (ip), vehicle: Klucel (hydroxypropylcellulose) (HPC)): 99 % of control | T/C (dose: 200.0 mg/kg/injection, schedule: Q01DX005 (ip), vehicle: Klucel (hydroxypropylcellulose) (HPC)): 89 % of control
